The results in this text go back to patent EP0989125B1, “Pesticidal furylmethyl cyclopropanecarboxylates” (Sumitomo Chemical Company, Limited, priority 1998, dated 2000).

SMILES strings stand for the structures.

Data set [1] concerns brown planthopper (Nilaparvata lugens). The data set is described as follows: Biological test 2: rice plant stalk dipped in emulsion. Type of data set: in vivo. As to conditions: Nilaparvata lugens, 144 h; 500 ppm aqueous emulsion, larvae, after 6 days. Here is the method: A stalk of a rice plant was dipped for one minute in a 500 ppm aqueous emulsion obtained by diluting each emulsifiable concentrate of the present compounds prepared according to the formulation example 1. The rice plant stalk was air-dried and placed in a polyethylene cup (diameter : 5.5 cm) where filter paper (diameter : 5.5 cm) impregnated with 1 ml of water was put. Approximately 30 larvae of brown planthopper (Nilaparvata lugens) were put in the polyethylene cup. After 6 days, the mortality of the larvae was examined.

For data set [2], the system named is common mosquitoes (Culex pipiens pallens). The data set is described as follows: Biological test 6: mosquito larvae in treated water. The class given is in vivo. The conditions noted are these: Culex pipiens, 24 h; 3.5 ppm active ingredient in water, last-instar larvae, after one day. As to the method: 0.7 ml of aqueous emulsion, obtained by diluting emulsifiable concentrate prepared for each of the present compounds according to the formulation example 1 was added to 100 ml of ion-exchanged water (concentration of active ingredient : 3.5 ppm). Twenty last-instar larvae of common mosquitoes (Culex pipiens pallens) were left in the water. After one day, the mortality of the common mosquitoes was examined.

Data set [3] has the same test system. The data set is described as follows: Biological test 7: oil solution sprayed in glass chamber, knock-down. Type of data set: in vivo. The conditions noted are these: 0.7 ml of 0.1 % oil solution sprayed, 0.34 m^3 chamber, after 15 minutes. Here is the method: Ten female common mosquitoes (Culex pipiens pallens) were left in a glass chamber (70 cm × 70 cm × 70 cm : 0.34 m^3). 0.7 ml of 0.1 % oil solution prepared for each of the present compounds according to the formulation example 7 was sprayed with a spray gun at 0.8 atmospheric pressure. After 15 minutes, the rate of knocked-down mosquitoes was examined.

Data set [4] has the same test system. Description: Biological test 8: mosquito-coil in glass chamber, knock-down. The class given is in vivo. As to conditions: 1.0 g of 0.3 % mosquito-coil, 0.34 m^3 chamber, after 15 minutes. As to the method: Mosquito-coil containing the present compound in an amount of 0.3 % was prepared according to the formulation example 10 for the present compounds. Ten female common mosquitoes (Culex pipiens pallens) were left in a glass chamber (70 cm × 70 cm × 70 cm : 0.34 m^3) and 1.0 g of 0.3 % mosquito-coil having both ends lit was placed in the glass chamber. After 15 minutes, the rate of knocked-down mosquitoes was examined.

Data set [5] has as its system houseflies (Musca domestica). The data set is described as follows: Biological test 9: topical application of acetone solution to houseflies. Type of data set: in vivo. As to conditions: 5 µg / one housefly, after 24 hours. As to the method: After 24 hours, the percent moribund was examined (two replicate).
The test system of data set [6] is houseflies (Musca domestica). The data set is described as follows: Biological test 10: vapour exposure over treated aluminum plate, houseflies. The class given is in vivo. As to conditions: 0.64 ml of 0.05 (w/v) % acetone solution, no direct contact, 25 °C for 120 minutes, after 24 hours. As to the method: (§1) After 0.64 ml of a 0.05 (w/v) % acetone solution of the present compounds was dropped into an aluminum plate (bottom diameter : 7 cm), acetone was air-dried. Ten female houseflies (Musca domestica) were left in a polyethylene cup (diameter : 9 cm; depth : 4.5 cm) and the cup was sealed with a 16-mesh nylon net to prevent direct contact of the houseflies with the compound. The cup was placed upside down on the aluminum plate at 25 °C for 120 minutes. The cup was then removed from the aluminum plate, and water and feed were given to the houseflies. After 24 hours, the percent moribund was examined (two replicate).

Data set [7] deals with common mosquitoes (Culex pipiens pallens). Description: Biological test 11: vapour exposure over treated aluminum plate, mosquitoes. Type of data set: in vivo. The conditions noted are these: Culex pipiens, 24 h. Here is the method:
as §1, with “common mosquitoes (Culex pipiens pallens)” for “houseflies (Musca domestica)”, “mosquitoes” for “houseflies”, “mosquitoes.” for “houseflies.”, “mortality” for “percent moribund”

Data set [8] deals with webbing clothes moth (Tineola bisselliella). The data set is described as follows: Biological test 12: topical application to webbing clothes moth larvae. Type of data set: in vivo. The conditions noted are these: 3 µg / insect, after 7 days. As to the method:
Each of the present compounds diluted with acetone to a predetermined concentration was applied to ten middle instar larvae of webbing clothes moth (Tineola bisselliella) at the central part of the back so as to give the active ingredient in a dose of 3 µg / insect. A wool muslin fabric (2 cm × 2 cm in size) was given to the webbing clothes moths as the food. After 7 days, the mortality and the degree of damage of the wool muslin fabric by the moths were examined (two replicate).

Data set [9] has the same test system. The data set is described as follows: Biological test 13: volatile agent hung in cup with webbing clothes moth larvae. The class given is in vivo. The conditions noted are these: volatile agent (100 µg on filter paper), 25 °C for 1 week. Here is the method: A wool muslin fabric (2 cm × 2 cm in size) was placed on the bottom of a polyethylene cup (bottom diameter : 10 cm, opening part diameter : 12.5 cm, height : 9.5 cm, volume : 950 cm^3 ). Ten middle instar larvae of webbing clothes moth (Tineola bisselliella) were put in the cup and each of the volatile agents prepared according to the formulation example 14 was hung from the cap in the interior of the cup. After standing at 25 °C for 1 week, the cup was opened, and the mortality and the degree of damage of the wool muslin fabric by the moths were examined (two replicate).

Data set [10] shares this test system. The data set is described as follows: Biological test 14: persistence of treated filter paper in cardboard box, webbing clothes moth larvae. The class given is in vivo. Also noted: key to degree of damage: -: no damage; +: slight damage; ++: heavy damage; +++: severe damage. The conditions noted are these: 36 mg on filter paper. As to the method:
A filter paper (3.2 cm × 3.2 cm in size) treated with 36 mg of each of the present compounds and two wool muslin fabrics (25 cm × 25 cm in size) were hung down at the upper part of a corrugated cardboard box (29 cm × 29 cm × 29 cm in size). After standing at 25 °C and a humidity of 60 % for 1 week, two tea-strainer balls holding 7 to 10 middle instar larvae of webbing clothes moth (Tineola bisselliella) and one piece of wool muslin cloth (2 cm × 2 cm in size) were hung down at the upper part of the box. The box was closed with a lid. After one week, the box was opened, and the percent moribund and the degree of damage of the wool muslin cloth by the moths were examined. The same tests was repeated 2 weeks, 3 weeks and 5 weeks after the treatment to examine the persistance of the present compound. The degree of damage was represented by "-" in no damage, " + " in slight damage, " ++ " in heavy damage and "+++ " in severe damage.

The test system of another data set is rats. As to conditions: male 7-week old rats, into the stomach in corn oil, after 7 days. Here is the method:
After subjecting the rats to a twenty-hour fasting, 0.1 ml of the diluted solution per 10g weight was forcibly applied into the stomach of four male 7-week old rats. The rats were given food and water four hours after the application and thereafter regularly fed and watered, and kept in a cage. After 7 days, the mortality was examined for the rats and LD50 was calculated.

The test system of data set [11] is tobacco cutworm (Spodoptera litura). Description: Biological test 1: artificial bait impregnated with emulsion. As to conditions: Spodoptera litura, in Nicotiana tabacum, 144 h.
Data set [12] concerns southern corn rootworm (Diabrotica undecimpunctata howardi). The data set is described as follows: Biological test 3: treated filter paper with eggs and sprouting corn. The conditions noted are these: Diabrotica undecimpunctata, in Zea mays, 192 h, read-out: mortality of the hatched larvae and eggs.
Data set [13] relates to German cockroaches (Blattella germanica). Description: Biological test 5: treated filter paper with sucrose bait, cockroaches low sensitive to pyrethroids. The conditions noted are these: Blattella germanica, 144 h.

In general, mortality refers to the share of the test organisms that died. By LD50 is commonly meant the dose expected to kill half of the subjects tested.

On to `Cc1ccc(COC(=O)[C@@H]2[C@H](/C=C(\Cl)C(F)(F)F)C2(C)C)o1` (racemic) [present compound (1), 5-methyl-2-furfuryl (1RS,cis)-3-(Z-2-chloro-3,3,3-trifluoroprop-1-enyl)-2,2-dimethylcyclopropanecarboxylate], for which the results for the mortality at 500 ppm in [1] and in data set [13] were no less than 90% and 100%, respectively. The same compound yielded a mortality at 3.5 ppm in data set [2] of no less than 90%. Moreover, the “rate of knocked-down mosquitoes” value in [3] is recorded as no less than 90%; in data set [4] it was 100%. The percent moribund in data set [5], in data set [6], in data set [10] (After 1 week), in data set [10] (After 2 weeks), in data set [10] (After 3 weeks) and in [10] (After 5 weeks) was 100% each time. For the same compound, the mortality at 500 µg/mL in data set [7] and in [11] was 100% in each case. Further, the “degree of damage of the wool muslin fabric” value in [8] and in [9] was “no damage” throughout. Besides, the mortality at 0.003 mg in data set [8] (Tineola bisselliella, 168 h) is 100%. This compound returned a mortality at 0.1 mg in data set [9] (Tineola bisselliella, 168 h) of 100%. The degree of damage entry in data set [10] (After 1 week), in [10] (After 2 weeks), in [10] (After 3 weeks) and in data set [10] (After 5 weeks) was “-” throughout. This compound also displayed a 50% lethal dose (LD50) in the data set with rats of 300 mg/kg. Further, the mortality at 50 ppm in data set [12] turned out to be 100%.
As for `C#CCc1ccc(COC(=O)C2C(/C=C(\Cl)C(F)(F)F)C2(C)C)o1` (centres unmarked) [C, reference compound], the degree of damage result in [10] (After 1 week), in data set [10] (After 2 weeks), in [10] (After 3 weeks) and in data set [10] (After 5 weeks) was “+++” each time. In addition, the percent moribund is 7% in data set [10] (After 1 week), 63% in data set [10] (After 2 weeks), 20% in [10] (After 3 weeks) and 37% in data set [10] (After 5 weeks). Also, the LD50 result with rats was “less than 100 mg/kg”.
